Results from patent US12286452B2, “Amphiphilic aminoglycoside connexin hemichannel inhibitors” (Texas Tech University System, priority 2018, dated 2025).
Read-outs that look alike come from different tables or passages of the source.

Columns and labels:
[1] = target: T1, human Cx26 HCs (Homo sapiens, UniProt P29033); experiment: Cx26-dependent growth complementation assay in E. coli LB2003; assay type: cell-based; details: for IC50: read-out: Cx26 IC50
T1 construct: expressed in transfected cells; host or cells: E. coli LB2003 (carrying pREP4), transformed with pQE-Cx26, IPTG-induced
Description: These derivatives were prepared by sequential benzylation and methylation followed by reduction of azido groups or hydrogenolysis of the Bn. […] Connexin HC inhibition was conducted using a bacteria-based assay of HC function^39. In this assay, Cx26 HCs are expressed in E. coli LB2003 cells, which lack three major K^+ uptake systems (Kdp, Kup and Trk), and as a result they cannot grow in low-[K^+] media^39-41. However, growth of this E. coli strain in low-[K^+] medium can be rescued by expression of K^+-permeable channels such as connexin HCs^39, 42-43. Under the conditions of the assay (LB2003 cells expressing HCs and grown in low-K^+ medium), inhibition of the HCs reduces or abolishes growth^39, 42-43. This is a simple assay where bacterial growth in multi-well plates can be followed by measuring the absorbance at 600 nm (OD600)^29.
LB2003 cells generously provided by Dr. E. P. Bakker (Osnabruk University, Osnabruk, Germany) were transformed with the plasmid pQE-Cx26 (human Cx26 into pQE60) and pREP4. […] LB2003 cells cannot grow in low-[K^+] media because of insufficient K^+ uptake for growth due to the knockout of three key K^+ transporters (Atrk, Akup, Akdp strain)^2-4. Details and validation of the growth complementation assay have been published recently^2. In brief, competent LB2003 containing the pREP4 plasmid were transformed with pQE-Cx26. These cells were grown overnight in Luria-Bertani medium (BD, Franklin Lakes, NJ, USA) supplemented with 100 mM KCl (to allow growth) and 0.4 mg/mL ampicillin, and then washed four times with NLM (see below), to remove residual K^+ from the Luria-Bertani medium. The washed cells were resuspended in complementation growth medium to an OD600 of 0.2. NLM contained 46 mM Na2HPO4, 23 mM NaH2PO4, 8 mM (NH4)2SO4, 0.4 mM MgSO4, 0.012 mM FeSO4, 1 mM sodium citrate, 44 mM glucose and 0.006 mM thiamine hydrochloride, pH 7.0. KLM had the same composition that NLM except for the equimolar replacement of Na^+ with K^+. For growth complementation we used NLM+4 mM KCl, and Cx26 expression was induced with 0.5 mM IPTG at the time of dilution to OD600=0.2. For the assay, the cells were seeded in 96-well plates and were incubated at 30° C., with shaking at 500 rpm. OD600 was measured after 18-h incubation in a plate reader. The initial OD600=0.2 was subtracted for growth calculations. Data are presented as means±SEM. Statistically significant differences were calculated by the Student t-test for unpaired data. Data were obtained from at least 3 independent experiments, with 3 repeats per experiment.

[2] = target: T2, Cx43 HCs (Homo sapiens, UniProt P17302); experiment: Cx43-dependent growth complementation assay in E. coli LB2003; assay type: cell-based; details: for Cx43/Cx26 Selectivity: IC50 Cx26/IC50 Cx43; for inhibition at 15 µM / Cx43 inhibition (%): 15 μM; for IC50: read-out: Cx43 IC50
T2 construct: expressed in transfected cells
T2 sequence (P17302 whole entry): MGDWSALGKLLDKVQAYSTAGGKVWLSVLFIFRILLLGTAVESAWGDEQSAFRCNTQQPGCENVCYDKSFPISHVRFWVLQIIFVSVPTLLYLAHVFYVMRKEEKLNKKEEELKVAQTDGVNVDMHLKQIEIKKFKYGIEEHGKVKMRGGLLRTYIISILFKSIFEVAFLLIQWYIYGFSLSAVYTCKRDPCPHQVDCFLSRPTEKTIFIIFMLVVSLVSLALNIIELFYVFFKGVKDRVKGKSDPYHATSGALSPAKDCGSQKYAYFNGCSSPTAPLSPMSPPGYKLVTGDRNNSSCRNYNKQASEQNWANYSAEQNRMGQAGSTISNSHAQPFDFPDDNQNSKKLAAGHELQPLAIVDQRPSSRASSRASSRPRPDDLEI

[3] = target: T2, Cx43 HCs; details: cited from earlier work
[4] = target: T1, human Cx26 HCs; details: commercial aminoglycosides, the 16th table, adapted from ref. 1; cited from earlier work
[5] = Table 3, read-out: Cx243% inhibition
[6] = commercial aminoglycosides, the 16th table, adapted from ref. 1, read-out: Cx43 IC50
[7] = K members, the 21st table, read-out: Cx43 % inhibition
[8] = Table 6, read-out: Cx43 (% inhibition)
[9] = the 15th table, second Cx43 column, sub-head and unit not given
[10] = the 15th table, sub-head and unit inferred
[11] = the 15th table, Cx26, sub-head and unit not given
[12] = the 15th table, Cx26, unit not given (cf. the 22nd table)
[13] = KI members, the 23rd table, read-out: Cx43 % inhibition

Compound	inhibition at 15 µM ([1]; Table 3)	inhibition at 50 µM ([1]; Table 3)	inhibition at 15 µM [2, 5]	inhibition at 50 µM [2, 5]	IC50 [3, 6]	IC50 [4]	inhibition at 15 µM ([1]; Table 6)	inhibition at 50 µM ([1]; Table 6)	inhibition at 15 µM [2, 8]	inhibition at 50 µM [2, 8]	IC50 ([2]; Table 7)	Cx43 Imax [2, 9]	IC50 [2, 10]	inhibition at 15 µM [2, 13]	inhibition at 50 µM [2, 13]	other results
NCC1O[C@H](OC2C(N)CC(N)C(OC3O[C@H](CO)C(O)C(N)[C@H]3O)C2O)C(O)[C@@H](O)[C@@H]1O (stereo in doubt) [Kanamycin A, reference compound]	49.7 ± 1.6%	77.4 ± 1.8%	15.6 ± 1.4%	40.4 ± 1%	–	–	–	–	–	–	–	–	–	–	–	IC50 ([3]; approximate, text b120, read-out: IC50 for inhibition of Cx43 HCs): ~50 µM
CN[C@@H]1[C@@H](O)[C@@H](O[C@@H]2[C@@H](O)[C@H](O[C@H]3O[C@H]([C@@H](C)O)[C@@H](O)[C@H](O)[C@H]3N)[C@@H](N)C[C@H]2N)OC[C@]1(C)O [Compound G418, G418]	–	–	–	–	3 ± 0.8 µM	0.44 ± 0.06 µM	–	–	–	–	–	–	–	–	–	Cx43/Cx26 Selectivity ([2]; the 16th table): 0.20
Cc1ccc(OC[C@H]2OC(OC3C(N)CC(N)C(O[C@H]4OC(CN)[C@@H](O)C(O)C4O)[C@@H]3O)[C@H](O)C(N)C2O)cc1 (some centres unmarked) [Compound K82]	19.3 ± 2.2%	28.2 ± 4.5%	–	–	–	–	19.3 ± 2.2%	28.2 ± 4.5%	> 50%	76.8 ± 5.8%	6.2 ± 1.4 µM	91.1 ± 11.5	7.1 ± 1.4 µM	–	–	IC50 ([1]; Table 7): 49.4 ± 9.3 µM; inhibition at 15 µM [2, 7]: 58.4 ± 10.6%; Cx43 inhibition (%) ([2]; Table 6, listed as 8b): 63.8 ± 6.8%; inhibition at 50 µM [2, 7]: 71 ± 14.1%; Cx43/Cx26 Selectivity ([2]; Table 7, listed as 8b): 7.97; Cx43 Imax ([2]; the 22nd table): 91.1 ± 11.5%; IC50 ([2]; the 22nd table): 7.1 ± 1.4 µM; Cx43 Imax ([2]; the 24th table): 91.1 ± 11.5%; IC50 ([2]; the 24th table): 7.1 ± 1.4 µM
NCC1O[C@H](OC2C(N)CC(N)C(OC3O[C@H](COc4ccc(Cl)cc4)C(O)C(N)[C@H]3O)[C@H]2O)C(O)C(O)[C@@H]1O (some centres unmarked) [Compound K84]	44.4 ± 7%	69.5 ± 4.5%	–	–	–	–	44.4 ± 7%	69.5 ± 4.5%	> 50%	68.3 ± 4.6%	8.9 ± 1.6 µM	80.6 ± 6.0	8.9 ± 1.6 µM	–	–	Cx26 Imax [1, 11]: 95.9 ± 10.9; IC50 [1, 12]: 17.2 ± 3.2 µM; Cx26 Imax ([1]; the 22nd table): 95.9 ± 10.9%; Cx26 Imax ([1]; the 24th table): 95.9 ± 10.9%; inhibition at 15 µM [2, 7]: 45.8 ± 6.4%; Cx43 inhibition (%) ([2]; Table 6, listed as 8d): 50.3 ± 1.0%; inhibition at 50 µM [2, 7]: 76.7 ± 7.7%; Cx43/Cx26 Selectivity ([2]; Table 7): 1.93; Cx43 Imax ([2]; the 22nd table): 80.6 ± 6.0%; IC50 ([2]; the 22nd table): 8.9 ± 1.6 µM; Cx43 Imax ([2]; the 24th table): 80.6 ± 6.0%; IC50 ([2]; the 24th table): 8.9 ± 1.6 µM
CCCCCCCC(=O)NCC1O[C@H](OC2C(N)CC(N)C(OC3O[C@H](CO)C(O)C(N)[C@H]3O)[C@H]2O)C(O)C(O)[C@@H]1O (some centres unmarked) [KI02]	14 ± 2.1%	25.2 ± 2.3%	17 ± 5.2%	37.2 ± 7.6%	–	–	14 ± 2.1%	25.2 ± 2.3%	17 ± 5.2%	37.2 ± 7.6%	–	–	–	17 ± 5.2%	37.2 ± 7.6%	–
CCCCCCCCCC(=O)NCC1O[C@H](OC2C(N)CC(N)C(OC3O[C@H](CO)C(O)C(N)[C@H]3O)[C@H]2O)C(O)C(O)[C@@H]1O (some centres unmarked) [KI03]	16.1 ± 3.2%	33.6 ± 3.8%	44.4 ± 5.3%	53.5 ± 1.9%	–	–	16.1 ± 3.2%	33.6 ± 3.8%	44.4 ± 5.3%	53.5 ± 1.9%	–	–	–	44.4 ± 5.3%	53.5 ± 1.9%	–
CCCCCCCCCCCC(=O)NCC1O[C@H](OC2C(N)CC(N)C(OC3O[C@H](CO)C(O)C(N)[C@H]3O)[C@H]2O)C(O)C(O)[C@@H]1O (some centres unmarked) [KI04]	16.4 ± 2.3%	56.2 ± 6.8%	–	–	–	–	16.4 ± 2.3%	56.2 ± 6.8%	> 50%	70.9 ± 2.3%	9.7 ± 1.8 µM	82.2 ± 5.9	9.7 ± 1.8 µM	43.9 ± 4.3%	58.2 ± 3.9%	Cx26 Imax [1, 11]: 118.0 ± 7.6; IC50 [1, 12]: 66.7 ± 6.9 µM; Cx43 inhibition (%) ([2]; Table 6, listed as 4i): 53.6 ± 4.6%; Cx43/Cx26 Selectivity ([2]; Table 7, listed as 4i): 6.88
NC1CC(N)C(O[C@H]2OC(CNC(=O)c3cc(-c4ccccc4)nc4ccccc34)[C@@H](O)C(O)C2O)[C@H](O)C1OC1O[C@H](CO)C(O)C(N)[C@H]1O (some centres unmarked) [KI08]	8.8 ± 2%	22.8 ± 2.2%	25.5 ± 7.1%	51 ± 2.5%	–	–	8 ± 2%	22.8 ± 2.2%	25.5 ± 7.1%	51 ± 2.5%	–	–	–	25.5 ± 7.1%	51 ± 2.5%	–
NC1CC(N)C(O[C@H]2OC(CNC(=O)CCCc3ccc4ccc5cccc6ccc3c4c56)[C@@H](O)C(O)C2O)[C@H](O)C1OC1O[C@H](CO)C(O)C(N)[C@H]1O (some centres unmarked) [KI09]	36.9 ± 3.9%	79.2 ± 7.5%	–	–	–	–	36.9 ± 3.9%	79.2 ± 7.5%	> 50%	69.6 ± 7.5%	8.6 ± 1 µM	80.2 ± 7.0	8.6 ± 3 µM	43 ± 10.7%	56.8 ± 11%	Cx26 Imax [1, 11]: 95.3 ± 3.5; IC50 [1, 12]: 18.6 ± 2.1 µM; Cx43 inhibition (%) ([2]; Table 6, listed as 4e): 52.2 ± 8.8%; Cx43/Cx26 Selectivity ([2]; Table 7): 2,16
NC1CC(N)C(O[C@H]2OC(CNC(=O)c3ccccc3-c3c4ccc(=O)cc-4oc4ccc(O)cc34)[C@@H](O)C(O)C2O)[C@H](O)C1OC1O[C@H](CO)C(O)C(N)[C@H]1O (some centres unmarked) [KI10]	22.3 ± 6.9%	79.6 ± 3.5%	56.8 ± 8.8%	83.4 ± 1.1%	–	–	22.3 ± 6.9%	79.6 ± 3.5%	> 50%	83.4 ± 1.1%	8.9 ± 3.7 µM	–	–	56.8 ± 8.8%	83.4 ± 1.1%	IC50 ([1]; Table 7): 12.7 ± 2.2 µM; Cx43/Cx26 Selectivity ([2]; Table 7): 1.42
NC[C@H]1O[C@H](O[C@H]2[C@H](O)[C@@H](O[C@H]3O[C@H](CO)[C@@H](O)[C@H](N)[C@H]3O)[C@H](N)C[C@@H]2N)[C@H](N)[C@@H](O)[C@@H]1O [Kanamycin B]	–	–	–	–	24 ± 2 µM	3.6 ± 0.9 µM	–	–	–	–	–	–	–	–	–	Cx43/Cx26 Selectivity ([2]; the 16th table): 0.15
NC[C@H]1O[C@H](O[C@H]2[C@H](O[C@@H]3O[C@H](CO)[C@@H](O)[C@H]3O)[C@@H](O)[C@H](N)C[C@@H]2N)[C@H](N)[C@@H](O)[C@@H]1O [Ribostamycin]	–	–	–	–	> 200 µM	> 100 µM	–	–	–	–	–	–	–	–	–	–
Neomycin	–	–	–	–	45 ± 9 µM	7.4 ± 1.3 µM	–	–	–	–	–	–	–	–	–	Cx43/Cx26 Selectivity ([2]; the 16th table): 0.16
